Reference: the NIST ThermoML archive (doi:10.1021/je800757j)
± gives the expanded uncertainty stated by the source.

Conditions: Liquid

Row | SMILES | vapor or sublimation pressure (433.15 K) [kPa] | vapor or sublimation pressure (443.15 K) [kPa] | vapor or sublimation pressure (453.15 K) [kPa] | vapor or sublimation pressure (353.15 K) [kPa] | vapor or sublimation pressure (373.15 K) [kPa] | vapor or sublimation pressure (393.15 K) [kPa] | vapor or sublimation pressure (413.15 K) [kPa] | vapor or sublimation pressure (423.15 K) [kPa]
1 | CCCCCCC [heptane] | 477 ± 18 | 587 ± 19 | 703 ± 21 | – | – | – | – | –
2 | CCCC [butane] | – | – | – | 1039 ± 27 | 1586 ± 39 | 2265 ± 56 | 3156 ± 78 | –
3 | CCCCCC [hexane] | 918 ± 25 | – | 1301 ± 33 | – | – | 410 ± 17 | 633 ± 20 | –
4 | CCCCC [pentane] | – | – | – | – | 600 ± 20 | – | – | 1620 ± 40
